Values after ≈ are worked out from the molar mass of the structure shown.
Experiments:
Penicillium digitatum [1] = assay: Fungicidal activity against Penicillium digitatum at 50 mg/l at 26 degC after 48 hr by growth inhibition test; assay type: functional; conditions: read-out: GI
[2] = molecular target: T1, Cytochrome P450 14alpha-demethylase (Penicillium digitatum, UniProt A1XG20); assay: Binding affinity to Penicillium digitatum CYP51 expressed in Escherichia coli BL21 (DE3) cells by binding spectrum method
T1 sequence (A1XG20 whole entry): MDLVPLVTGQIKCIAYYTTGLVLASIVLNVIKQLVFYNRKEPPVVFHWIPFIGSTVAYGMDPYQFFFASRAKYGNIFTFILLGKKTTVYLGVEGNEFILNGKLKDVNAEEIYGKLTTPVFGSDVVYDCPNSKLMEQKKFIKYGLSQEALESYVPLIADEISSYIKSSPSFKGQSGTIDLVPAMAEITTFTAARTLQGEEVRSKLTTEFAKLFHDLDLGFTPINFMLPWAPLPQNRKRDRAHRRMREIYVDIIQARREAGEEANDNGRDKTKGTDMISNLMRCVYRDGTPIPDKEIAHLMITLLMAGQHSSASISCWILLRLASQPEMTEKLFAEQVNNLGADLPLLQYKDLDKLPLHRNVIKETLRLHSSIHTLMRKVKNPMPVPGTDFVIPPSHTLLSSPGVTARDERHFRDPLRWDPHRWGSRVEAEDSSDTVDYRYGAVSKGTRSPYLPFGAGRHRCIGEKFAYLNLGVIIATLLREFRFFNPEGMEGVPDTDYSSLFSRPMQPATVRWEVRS

[3] = molecular target: T1, Cytochrome P450 14alpha-demethylase; assay: Binding affinity to Penicillium digitatum CYP51 expressed in Escherichia coli BL21 (DE3) cells assessed as absorption spectral changes with maximum at 420-430 nm and trough at 385-400 nm (type II) by binding spectrum method
Penicillium digitatum [4] = assay: Fungicidal activity against Penicillium digitatum at 26 degC after 48 hr by growth inhibition test; assay type: functional, organism-based
[5] = molecular target: T1, Cytochrome P450 14alpha-demethylase; assay: Binding affinity to Penicillium digitatum CYP51 expressed in Escherichia coli BL21 (DE3) cells assessed as absorption spectral changes with maximum at 390 nm and trough at 420 nm (type I) by binding spectrum method
[6] = molecular target: T1, Cytochrome P450 14alpha-demethylase; assay: Binding affinity to Penicillium digitatum CYP51 expressed in Escherichia coli BL21 (DE3) cells assessed as absorption spectral changes with maximum at 420-430 nm and trough at 390-410 nm (type II) by binding spectrum method

Structure (SMILES)	inhibition of growth at 50 µg/mL (Penicillium digitatum [1]) [%]	Kd ([2]; read-out: Kd) [nM]	Activity [3]	EC50 (Penicillium digitatum [4]) [µg/mL]	Kd ([2]; bl21-de3)	Activity [5]	Activity [6]
CC[C@H](CCn1cncn1)c1ccccc1	84	34	Active	0.577 (≈ 2.68 µM)	–	–	–
CC[C@@H](CCn1cncn1)c1ccccc1	20	1660	Active	89.6 (≈ 416 µM)	–	–	–
CC[C@H](CCn1cncn1)c1ccc(F)cc1	88	81	Active	–	–	–	–
CC[C@@H](CCn1cncn1)c1ccc(F)cc1	78	230	Active	–	–	–	–
CC[C@H](CCn1cncn1)c1ccc(Cl)cc1	92	150	Active	0.587 (≈ 2.35 µM)	–	–	–
CC[C@@H](CCn1cncn1)c1ccc(Cl)cc1	23	1140	Active	61.1 (≈ 245 µM)	–	–	–
CC[C@H](CCn1cncn1)c1ccc(OC)cc1	89	63	Active	–	–	–	–
CC[C@@H](CCn1cncn1)c1ccc(OC)cc1	77	505	Active	–	–	–	–
CCC[C@H](CCn1cncn1)c1ccccc1	90	140	Active	–	–	–	–
CCC[C@@H](CCn1cncn1)c1ccccc1	79	210	Active	–	–	–	–
CCC[C@H](CCn1cncn1)c1ccc(F)cc1	89	250	Active	–	–	–	–
CCC[C@@H](CCn1cncn1)c1ccc(F)cc1	78	–	–	–	Not Active	–	–
CCC[C@H](CCn1cncn1)c1ccc(OC)cc1	90	150	Active	0.603 (≈ 2.33 µM)	–	–	–
CCC[C@@H](CCn1cncn1)c1ccc(OC)cc1	< 5	–	–	138 (≈ 534 µM)	Not Active	–	–
CCCC[C@H](CCn1cncn1)c1ccccc1	73	760	Active	–	–	–	–
CCCC[C@@H](CCn1cncn1)c1ccccc1	65	–	–	–	Not Active	–	–
CCCC[C@H](CCn1cncn1)c1ccc(F)cc1	100	90	Active	0.88 (≈ 3.37 µM)	–	–	–
CCCC[C@@H](CCn1cncn1)c1ccc(F)cc1	95	150	Active	1.15 (≈ 4.4 µM)	–	–	–
CCCC[C@H](CCn1cncn1)c1ccc(Cl)cc1	88	350	Active	–	–	–	–
CCCC[C@@H](CCn1cncn1)c1ccc(Cl)cc1	83	340	–	–	–	Active	–
CCCC[C@H](CCn1cncn1)c1ccc(OC)cc1	100	49	Active	0.62 (≈ 2.27 µM)	–	–	–
CCCC[C@@H](CCn1cncn1)c1ccc(OC)cc1	97	180	Active	0.97 (≈ 3.55 µM)	–	–	–
CCCC[C@H](CCn1cncn1)c1ccc(C)cc1	93	46	Active	–	–	–	–
CCCC[C@@H](CCn1cncn1)c1ccc(C)cc1	87	1220	Active	–	–	–	–
CC(C)(C)C(O)/C(=C/c1ccc(Cl)cc1Cl)n1cncn1 (stereo not given) [DINICONAZOLE]	100	–	–	0.09 (≈ 0.276 µM)	–	–	–
CC(C)(C)C(O)/C(=C\c1ccc(Cl)cc1Cl)n1cncn1 (stereo not given) [DINICONAZOLE]	–	120	–	–	–	–	Active
CC(C)(C)C(O)(CCc1ccc(Cl)cc1)Cn1cncn1 (stereo not given) [TEBUCONAZOLE]	100	320	–	0.37 (≈ 1.2 µM)	–	Active	–
CC(C)(C)C(=O)C(Oc1ccc(Cl)cc1)n1cncn1 (stereo not given) [TRIADIMEFON]	100	990	–	2.27 (≈ 7.73 µM)	–	–	Active
CC(C)(C)C(O)C(Oc1ccc(Cl)cc1)n1cncn1 (stereo not given) [TRIADIMENOL]	100	640	–	1.44 (≈ 4.87 µM)	–	–	Active

Reference: ChEMBL document CHEMBL3045440, “Determination of stereoselective interaction between enantiomers of chiral gamma-aryl-1H-1,2,4-triazole derivatives and Penicillium digitatum” (J Agric Food Chem, 2009)
